Patent publication EP4227307A1 (Genzyme Corporation, priority 2022, dated 2023)
pIC50: −log10 of the molar value. Where a name gives a salt, the structure may show the parent alone.

These compounds were tested against T1, human recombinant 6His-Nterm SHP2 full-length (Thr2-Arg593) (Homo sapiens, UniProt Q06124) (assay: SHP2 Phosphatase Assay (DiFMUP fluorescence)). Settings: SHP2 0.2 nM pre-incubated with 100 nM bi-phosphorylated activating peptide; compound 1000-0.05 nM, 30 min pre-incubation; DiFMUP 20 µM, 45 min, room temperature; 10-concentration dose-response.
T1 construct: 6His-Nterm SHP2 full-length (Thr2-Arg593, R&D system); 6His (N); purchased R&D system
T1 sequence (Q06124 2-593): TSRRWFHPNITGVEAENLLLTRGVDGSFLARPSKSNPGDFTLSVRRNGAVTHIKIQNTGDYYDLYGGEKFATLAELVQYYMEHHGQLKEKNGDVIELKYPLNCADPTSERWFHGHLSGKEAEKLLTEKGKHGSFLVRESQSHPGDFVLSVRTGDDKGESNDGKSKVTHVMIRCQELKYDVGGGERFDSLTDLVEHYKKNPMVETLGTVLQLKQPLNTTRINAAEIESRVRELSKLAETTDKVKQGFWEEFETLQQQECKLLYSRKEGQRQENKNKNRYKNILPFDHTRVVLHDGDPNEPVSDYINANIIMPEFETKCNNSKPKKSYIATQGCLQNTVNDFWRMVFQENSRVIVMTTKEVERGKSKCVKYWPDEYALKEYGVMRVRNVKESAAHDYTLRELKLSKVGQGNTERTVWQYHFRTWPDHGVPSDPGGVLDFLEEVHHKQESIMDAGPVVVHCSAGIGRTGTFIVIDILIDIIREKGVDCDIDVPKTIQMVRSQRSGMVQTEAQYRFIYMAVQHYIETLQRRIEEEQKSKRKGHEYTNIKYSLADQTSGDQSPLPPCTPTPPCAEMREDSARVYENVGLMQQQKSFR
Assay type: biochemical
Description: Inhibition of SHP2 phosphatase activity was evaluated using human recombinant 6His-Nterm SHP2 full-length (Thr2-Arg593, R&D system), NsCs bi-phosphorylated activating peptide (NH2-LN(pY)AQLWHA(PEG8)LTI(pY)ATIRRF-Amide.acetate, Thermofischer Scientific) and DiFMUP as surrogate phosphatase substrate (Molecular Probes). All reactions were performed at room temperature in 384-well black polystyrene non-binding plate (Corning) with the assay buffer (50 mM HEPES-NaOH pH 7.2, 100 mM NaCl, 0.5 mM EDTA, 0.001% Brij35 including 0.02% BSA and 1 mM DTT added extemporaneously). SHP2 was pre-incubated at least 10 min with the activating peptide (0.2 nM and 100 nM, respectively). 10 µL of this mixture was added to the assay plate, that already contained 15 nL of the compound (1000-0.05 nM). After 30 min pre-incubation, the enzymatic reaction was initiated by the addition of 5 µL DiFMUP in assay buffer without BSA (20 µM). The reaction was stopped by the addition of 15 µL sodium pervanadate solution (100 µM) after 45 min incubation. The fluorescence signal was measured at excitation and emission wavelengths of 350 nm and 450 nm, respectively, using a Pherastar instrument (BMG-LabTech). Percentage of inhibition […] were calculated from the fluorescence signal at 450 nm of the positive and negative control using the following formula: I% = ((signal Max−signal Sample)/(signal Max−signal Min control)) × 100 [formula]
Positive control (Max): corresponds to the maximum fluorescence signal obtained in the presence of 15 nL DMSO replacing the inhibitor in the pre-incubation step.
Negative control (Min): corresponds to the minimum signal obtained in the presence of 1 µM of RMC-4550, the structure of which is shown below: [drawing 464]
The IC50 were then calculated from a dose-response curve of 10 concentrations of tested compound using the 4-parameter logistic model: I% = A + (C)/(1 + exp(−B×log(X)−M)) [formula]
The parameters A and (A+C) are the lower and upper limits, B is the slope of the curve at the inflexion point, M parameter is the logarithm of the abscissa at the inflexion point, and X is the concentration of compound.

pIC50 | Compound
7.22 | Cc1nc(N2CCC3(CC2)Cc2cccnc2[C@H]3N)c2ccnn2c1-c1cnn(C)c1C [Compound 130, (7S)-1'-[7-(1,5-dimethylpyrazol-4-yl)-6-methyl-pyrazolo[1,5-a]pyrazin-4-yl]spiro[5,7-dihydrocyclopenta[b]pyridine-6,4'-piperidine]-7-amine]
7.51 | Cc1nc(N2CCC3(CC2)Cc2ncccc2[C@H]3N)c2ccnn2c1-c1ccc(C#N)s1 [Compound 190, 5-[6-methyl-4-[(5S)-5-aminospiro[5,7-dihydrocyclopenta[b]pyridine-6,4'-piperidine]-1'-yl]pyrazolo[1,5-a]pyrazin-7-yl]thiophene-2-carbonitrile]
8.15 | Cc1nccc(-c2c(C)nc(N3CCC4(CC3)Cc3cccnc3[C@H]4N)c3ccnn23)c1Cl [Compound 13, (7S)-1'-[7-(3-chloro-2-methyl-4-pyridyl)-6-methyl-pyrazolo[1,5-a]pyrazin-4-yl]spiro[5,7-dihydrocyclopenta[b]pyridine-6,4'-piperidine]-7-amine]
8.40 | Cc1nccc(-c2c(C)nc(N3CCC4(CC3)Cc3ccncc3[C@H]4N)c3ccnn23)c1Cl [Compound 139, (7S)-1'-[7-(3-chloro-2-methyl-4-pyridyl)-6-methyl-pyrazolo[1,5-a]pyrazin-4-yl]spiro[5,7-dihydrocyclopenta[c]pyridine-6,4'-piperidine]-7-amine]
8.30 | COc1nc2c(s1)[C@@H](N)C1(CCN(c3nc(C)c(-c4ccnc(C)c4Cl)n4nccc34)CC1)C2 [Compound 219, (6S)-1'-[7-(3-chloro-2-methyl-4-pyridyl)-6-methyl-pyrazolo[1,5-a]pyrazin-4-yl]-2-methoxy-spiro[4,6-dihydrocyclopenta[d]thiazole-5,4'-piperidine]-6-amine]
8.22 | Cc1nc(N2CCC3(CC2)Cc2ncccc2[C@H]3N)c2ccnn2c1-c1cccc(F)c1F [Compound 1, (5S)-1'-[7-(2,3-difluorophenyl)-6-methyl-pyrazolo[1,5-a]pyrazin-4-yl]spiro[5,7-dihydrocyclopenta[b]pyridine-6,4'-piperidine]-5-amine]
6.69 | Cc1nc(N2CCC3(CC2)[C@H](N)c2ccccc2N3C)c2ccnn2c1-c1ccccc1F [Compound 155, (3R)-1'-[7-(2-fluorophenyl)-6-methyl-pyrazolo[1,5-a]pyrazin-4-yl]-1-methyl-spiro [indoline-2,4'-piperidine]-3-amine]
8.52 | Cc1nc(N2CCC3(CC2)Cc2ncccc2[C@H]3N)c2ccnn2c1-c1ccc(F)cc1F [Compound 193, (5S)-1'-[7-(2,4-difluorophenyl)-6-methyl-pyrazolo[1,5-a]pyrazin-4-yl]spiro[5,7-dihydrocyclopenta[b]pyridine-6,4'-piperidine]-5-amine]
< 6.00 | Cc1nc(N2CCC3(CC2)Cc2ncccc2[C@H]3N)c2c(CO)cnn2c1-c1ccccc1 [Compound 145, [4-[(5S)-5-aminospiro[5,7-dihydrocyclopenta[b]pyridine-6,4'-piperidine]-1'-yl]-6-methyl-7-phenyl-pyrazolo[1,5-a]pyrazin-3-yl]methanol]

Compound | pIC50
Cc1nc(N2CCC3(CC2)Cc2ncccc2[C@H]3N)c2ccnn2c1-c1ccncc1F [Compound 71, (5S)-1'-[7-(3-fluoro-4-pyridyl)-6-methyl-pyrazolo[1,5-a]pyrazin-4-yl]spiro[5,7-dihydrocyclopenta[b]pyridine-6,4'-piperidine]-5-amine hydrochloride] | 7.52
COc1cccc2c1CC1(CCN(c3nc(C)c(-c4cnn(C)c4C)n4nccc34)CC1)[C@@H]2N [Compound 111, (1S)-1-[7-(1,5-dimethylpyrazol-4-yl)-6-methyl-pyrazolo[1,5-a]pyrazin-4-yl] -4-methoxy-spiro[indane-2,4'-piperidine]-1-amine] | 7.80
COc1ccc2c(c1)[C@@H](N)C1(CCN(c3nc(C)c(-c4ccccc4F)n4nccc34)CC1)C2 [Compound 11, (1S)-1'-[7-(2-fluorophenyl)-6-methyl-pyrazolo[1,5-a]pyrazin-4yl]-6-methoxy-spiro[indane-2,4'-piperidine]-1-amine hydrochloride] | 7.64
